# Laboratory results as given in patent US20140370320A1, “WOOD PRESERVATIVE” (Arch Wood Protection Pty Ltd, priority 2011, published 2014).
# Tests used:
# Fomitopsis lilacinogilva = assay: Laboratory fungal bioassay (Example 6), mass loss of treated, leached radiata pine sapwood; format: cell-based
# Description: (§1) The bioassay was carried out in accordance with recognised methods (see, Protocols for the Assessment of Wood Preservatives, Australasian Wood Preservation Committee, March 2007 Revision, Ensis, Clayton).
# (§2) Radiata pine sapwood (20×20×10 mm) specimens were treated with various preservative formulations. After drying the specimens were saturated with water and leached in a shaking water-bath at 35° C. for seven days, with daily changes of water. After leaching, the specimens were vacuum oven dried, before being sterilised in readiness for the fungal bioassay. The bioassay was carried out in accordance with standard laboratory techniques, by an independent research provider.
# (§3) Mass loss was used to determine the effectiveness of a preservative treatment. […] Decay is deemed to have been prevented if the mass loss is less than 3%.
# Fomitopsis lilacinogilva is a wood-rotting bracket fungus common in many places of Gondwanaland origin. It is found on logs, stumps, and some outdoor wooden constructions. It forms fans, shelves, pads or crusts, to 100 mm across, is hairy, crusted above, zoned pinkish and brownish. The results against Fomitopsis lilacinogilva were less spectacular. Azole/zinc 1:2 gave 10% mass loss; 1:1 gave 15.9% mass loss; and azoles alone gave 19.9% mass loss versus the control (71.5% mass loss).
# Coniophora olivacea = assay: as above; format: cell-based
# Description: as §1, §2, §3
# Some basidiomycete decay fungi are more tolerant to azoles that others. In this bioassay, a selection of brown rot fungi were chosen. One of those chosen, Coniophora olivacea, is relatively resistant to azoles.
# [1] = test system: decay of Radiata pine sapwood panels (field exposure, Hawaii); assay: Hawaiian field trial, flat panel test on treated radiata pine sapwood panels
# Description: Radiata pine sapwood panels (200×70×25 mm) were treated with various preservatives and exposed on racks at 45°, using a method generally described as the “flat panel test” (Reference: Australasian Wood Preservation Committee, Protocols for Assessment of Wood Preservatives, March 2007 Revision, pp. 32). Untreated controls, solvent-treated controls and panels treated with reference preservatives (e.g., CCA) were also included in this field test. Note: All formulations contained the insecticide permethrin at a concentration sufficient to deliver approximately 0.02% m/m active in the treated panels. After approximately three years outdoor exposure in Hawaii, the specimens were rated using a typical 0 to 10 rating system (e.g., Evaluation Standard […], AWPA Book of Standards, 2010, American Wood Protection Association, Birmingham, Ala.), where 7 is the lowest score where the specimen is deemed still to be serviceable.
# [2] = retention 0.1% m/m (as Zn metal)
# [3] = retention 0.2% m/m (as Zn metal)
# [4] = retention 0.3% m/m (as Zn metal)
Substance,F. lilacinogilva Mass Loss (%) (Fomitopsis lilacinogilva; [2]),F. lilacinogilva Mass Loss (%) (Fomitopsis lilacinogilva; [3]),F. lilacinogilva Mass Loss (%) (Fomitopsis lilacinogilva; [4]),C. olivacea Mass Loss (%) (Coniophora olivacea; [2]),C. olivacea Mass Loss (%) (Coniophora olivacea; [3]),C. olivacea Mass Loss (%) (Coniophora olivacea; [4]),"Comment (decay state of panels) ([1]; retention 0.11% m/m Cu, approx. three years outdoor exposure in Hawaii, permethrin approx. 0.02% m/m)","Minimum effective retention to prevent decay, as copper ([1]; three year inspection, Hawaii, expressed as copper) [% m/m]"
zinc naphthenate [ZnN],65.8,60.2,53.5,50.5,42.8,28.4,–,–
copper naphthenate,–,–,–,–,–,–,Heavily decayed,> 0.11
